Experimental data taken from patent US20110039846A1, “IMINOPYRIDINE DERIVATIVES AND USE THEREOF” (TAKEDA PHARMACEUTICAL COMPANY LIMITED, priority 2008, published 2011).
Where a name gives a salt, the structure may show the parent alone.

Molecular target: T1, human α1D adrenaline receptor (Homo sapiens, UniProt P25100)
T1 construct: expressed in transfected cells
T1 sequence (P25100 1-572): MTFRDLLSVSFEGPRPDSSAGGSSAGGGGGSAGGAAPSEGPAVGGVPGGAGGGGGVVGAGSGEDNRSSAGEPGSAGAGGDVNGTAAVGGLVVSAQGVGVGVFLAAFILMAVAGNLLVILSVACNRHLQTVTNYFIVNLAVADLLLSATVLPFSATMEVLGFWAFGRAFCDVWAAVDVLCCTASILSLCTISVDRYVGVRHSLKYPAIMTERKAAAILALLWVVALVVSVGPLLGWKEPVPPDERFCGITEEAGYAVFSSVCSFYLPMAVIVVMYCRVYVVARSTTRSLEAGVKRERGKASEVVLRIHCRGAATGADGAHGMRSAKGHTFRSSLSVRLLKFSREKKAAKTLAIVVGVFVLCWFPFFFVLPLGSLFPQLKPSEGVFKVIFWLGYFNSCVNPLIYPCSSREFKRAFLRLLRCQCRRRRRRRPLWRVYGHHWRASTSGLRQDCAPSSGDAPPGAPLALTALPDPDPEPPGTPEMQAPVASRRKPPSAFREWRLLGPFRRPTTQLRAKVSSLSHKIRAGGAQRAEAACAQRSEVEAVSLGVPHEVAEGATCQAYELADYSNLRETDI
Assay: Measurement of α1D adrenaline receptor binding inhibitory activity ([3H] prazosin binding to membrane fraction of CHO-K1 cells expressing the receptor)
Conditions: α1D adrenaline receptor binding inhibitory rate at 1 μM compound; [3H] prazosin 2.5 nM; CHO-K1 membrane fraction 20 μg/well; room temperature 1 hr
Method: Measurement of α1D Adrenaline Receptor Binding Inhibitory Activity
Genetic manipulation methods described below are based on the methods described in Maniatis et al., Molecular Cloning, Cold Spring Harbor Laboratory, 1989, the protocol appended to a reagent and the like.
α1D Adrenaline receptor gene was cloned from human liver cDNA by the PCR method. PCR reaction was performed by Gene Amp PCR System 9700 (Applied Biosystems) with 50 pmol each of the primer set 5′-[…]-3′ [SEQ ID NO: 1] and 5′-[…]-3′ [SEQ ID NO: 2] prepared in reference to the base sequence of the α1D adrenaline receptor gene reported by DEBRA A. et al. (J. Pharmacol. Exp. Ter., 272, 134-142 (1995)), 200 ng of human brain hippocampus cDNA library (Takara Shuzo Co., Ltd.) as a template and TaKaRa LA-Taq DNA Polymerase (Takara Shuzo Co., Ltd.) (reaction conditions: 45 cycles of 94° C. for 15 sec, 68° C. for 3.5 min).
The PCR fragment obtained above was digested with restriction enzymes NheI (Takara Shuzo Co., Ltd.) and Kpn I (Takara Shuzo Co., Ltd.), and applied to agarose gel electrophoresis to recover DNA fragments. The DNA fragments were ligated with animal cell expression plasmid pcDNA3.1/Zeo (Invitrogen) digested with NheI and Kpn I, by DNA Ligation Kit Ver.2 (Takara Shuzo Co., Ltd.), and transformed the competent cells of Escherichia coli JM109 to obtain plasmid, pcDNA3.1/Zeo-Adreα1D.
CHO-K1 cells passage cultured in HamF12 medium (Invitrogen) containing 10% fetal bovine serum (TRACE SCIENCETIFIC) in a 150 cm^2 culture flask (Corning Coaster) were detached with 0.5 g/L trypsin-0.2 g/L EDTA (Invitrogen), and the cells were washed with D-PBS(−) (Invitrogen) and centrifuged (1000 rpm, 5 min). Then, using Gene Pulser II (BioRad), DNA was introduced into the cells under the following conditions. 1×10^7 cells suspended in D-PBS(−) (700 μl) and 10 μg of pcDNA3.1/Zeo-Adreα1D were added in a 0.4 cm gap cuvette (BioRad), and electroporation was performed under voltage 0.25 kV, capacitance 960 μF. The cells were cultured in HamF12 medium containing 10% fetal bovine serum and 250 μg/mL Zeocin (Invitrogen) and the Zeocin resistance clones were selected.
Plurality of Zeocin resistance clones were selected and cultured in a cell culture flask (150 cm^2) until semiconfluent, and the cellular membrane fraction was prepared as follows.
The semiconfluent cells were detached with 0.02% EDTA containing D-PBS(−) and recovered by centrifugation. The cells were suspended in membrane preparation buffer (10 mM NaHCO3 pH 7.4, protease inhibitor cocktail (Roche)) and disrupted by 3 times of treatment in a polytron homogenizer (model PT-3100, KINEMATICA AG) at 20000 rpm for 20 seconds. After disruption, the cells were centrifuged at 2000 rpm for 10 min and the supernatant containing membrane fractions was obtained. The supernatant was centrifuged using an ultracentrifuge (model L8-70M, rotor 70 Ti, Beckman Instruments) at 30000 rpm for 1 hr to obtain a precipitate containing membrane fractions. The obtained membrane fraction of each clone was subjected to the binding experiment shown below.
The membrane fraction (20 μg/well) and [^3H] prazosin (2.5 nM, PerkinElmer Lifescience), as a ligand, were diluted with a binding assay buffer (50 mM Tris-HCl, 10 mM MgCl2, 0.5% BSA, protease inhibitor cocktail pH 7.5), added to a 96 well microplate, and reacted at room temperature for 1 hr. For the measurement of non-specific binding, phentolamine (Sigma) was further added to 10 μM. Then, the reaction mixture was filtered and transferred to unifilter GF/C (PerkinElmer Lifescience) by using a cell harvester (PerkinElmer Lifescience). The filter was washed 3 times with ice-cooled 50 mM Tris buffer (pH 7.5). After drying the filter, MicroScinti 0 (PerkinElmer Lifescience) was added to the filter and the radioactivity was measured by TopCount (PerkinElmer Lifescience). […]

| inhibition at 1 µM [%] | SMILES |
| --- | --- |
| 91.2 | N=c1c(C(N)=O)cc(Cl)cn1Cc1cc(Cl)ccc1S(N)(=O)=O [Example 28, 5-chloro-1-(5-chloro-2-sulfamoylbenzyl)-2-imino-1,2-dihydropyridine-3-carboxamide hydrochloride] |
| 89 | N=c1c(C(N)=O)cc(Cl)cn1Cc1cc(Cl)ccc1N1CCCC1=O [Example 35, 5-chloro-1-[5-chloro-2-(2-oxopyrrolidin-1-yl)benzyl]-2-imino-1,2-dihydropyridine-3-carboxamide hydrochloride] |
| 98.4 | CCS(=O)(=O)c1ccc(F)cc1Cn1cc(Cl)cc(C(N)=O)c1=N [Example 24, 5-chloro-1-[2-(ethylsulfonyl)-5-fluorobenzyl]-2-imino-1,2-dihydropyridine-3-carboxamide hydrochloride] |

Continued, molecule first:

| SMILES | inhibition at 1 µM [%] |
| --- | --- |
| C[S+]([O-])c1ccc(Cl)cc1Cn1cc(Cl)cc(C(N)=O)c1=N (stereo not shown) [Example 14, 5-chloro-1-[5-chloro-2-(methylsulfinyl)benzyl]-2-imino-1,2-dihydropyridine-3-carboxamide hydrochloride] | 92 |
| Cc1ccc(S(C)(=O)=O)c(Cn2cc(Cl)cc(C(N)=O)c2=N)c1 [Example 8, 5-chloro-2-imino-1-[5-methyl-2-(methylsulfonyl)benzyl]-1,2-dihydropyridine-3-carboxamide hydrochloride] | 93.5 |
| CS(=O)(=O)c1cc(Cl)cc(Cn2cc(Cl)cc(C(N)=O)c2=N)c1 [Example 12, 5-chloro-1-[3-chloro-5-(methylsulfonyl)benzyl]-2-imino-1,2-dihydropyridine-3-carboxamide hydrochloride] | 87.5 |
| CS(=O)(=O)c1ccc(Cl)cc1Cn1cc(Cl)cc(C(N)=O)c1=N [Example 1, 5-chloro-1-[5-chloro-2-(methylsulfonyl)benzyl]-2-imino-1,2-dihydropyridine-3-carboxamide hydrochloride] | 100 |
| CCS(=O)(=O)c1ccc(Cl)cc1Cn1cc(Cl)cc(C(N)=O)c1=N [Example 17, 5-chloro-1-[5-chloro-2-(ethylsulfonyl)benzyl]-2-imino-1,2-dihydropyridine-3-carboxamide hydrochloride] | 100 |
| CS(=O)(=O)c1ccc(F)cc1Cn1cc(Cl)cc(C(N)=O)c1=N [Example 18, 5-chloro-1-[5-fluoro-2-(methylsulfonyl)benzyl]-2-imino-1,2-dihydropyridine-3-carboxamide hydrochloride] | 93.5 |
| CS(=O)(=O)c1cc(Cn2cc(Cl)cc(C(N)=O)c2=N)ccc1Cl [Example 15, 5-chloro-1-[4-chloro-3-(methylsulfonyl)benzyl]-2-imino-1,2-dihydropyridine-3-carboxamide hydrochloride] | 72.8 |
